Laboratory results reported in US20210070748A1, “INHIBITORS OF BRUTONS TYROSINE KINASE” (Pharmacyclics LLC, priority 2015, published 2021).

Tests used:
Format in all cases: biochemical
[1] = biological target: T1, JAK3 (Homo sapiens, UniProt P52333); test: Inhibition of a panel of kinases, in vitro HotSpot kinase assay: JAK3; details: D-compounds panel data; 1 μM ATP; read-out: IC50 JAK3
T1 sequence (P52333 1-1124): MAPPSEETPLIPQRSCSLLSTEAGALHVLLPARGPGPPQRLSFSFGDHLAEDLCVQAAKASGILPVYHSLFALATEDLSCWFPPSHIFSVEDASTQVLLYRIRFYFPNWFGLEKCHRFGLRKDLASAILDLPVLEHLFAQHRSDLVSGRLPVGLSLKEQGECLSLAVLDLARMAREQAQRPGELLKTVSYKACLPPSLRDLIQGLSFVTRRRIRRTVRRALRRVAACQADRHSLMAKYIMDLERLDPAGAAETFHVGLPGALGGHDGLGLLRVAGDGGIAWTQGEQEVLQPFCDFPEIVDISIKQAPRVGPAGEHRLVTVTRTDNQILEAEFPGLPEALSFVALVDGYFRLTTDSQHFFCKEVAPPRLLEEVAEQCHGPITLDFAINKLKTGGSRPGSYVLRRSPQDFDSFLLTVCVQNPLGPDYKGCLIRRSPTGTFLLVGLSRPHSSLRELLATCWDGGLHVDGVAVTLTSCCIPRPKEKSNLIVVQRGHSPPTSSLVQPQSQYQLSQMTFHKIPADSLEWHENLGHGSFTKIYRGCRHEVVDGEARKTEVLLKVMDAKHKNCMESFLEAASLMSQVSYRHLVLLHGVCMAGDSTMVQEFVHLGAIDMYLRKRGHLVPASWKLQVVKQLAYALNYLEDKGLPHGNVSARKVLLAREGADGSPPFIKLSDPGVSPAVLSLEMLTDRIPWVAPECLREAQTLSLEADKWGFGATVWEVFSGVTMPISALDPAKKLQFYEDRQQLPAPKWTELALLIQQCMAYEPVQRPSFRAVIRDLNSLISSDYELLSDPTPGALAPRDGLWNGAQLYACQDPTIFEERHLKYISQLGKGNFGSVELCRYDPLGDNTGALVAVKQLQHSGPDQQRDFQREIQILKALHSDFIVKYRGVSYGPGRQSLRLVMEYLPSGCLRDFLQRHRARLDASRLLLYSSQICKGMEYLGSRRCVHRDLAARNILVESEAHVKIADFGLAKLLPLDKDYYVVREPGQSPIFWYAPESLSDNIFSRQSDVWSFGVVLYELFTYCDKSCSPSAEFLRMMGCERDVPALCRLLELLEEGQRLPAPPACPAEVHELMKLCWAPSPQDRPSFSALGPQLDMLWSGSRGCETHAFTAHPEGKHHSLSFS

[2] = biological target: LCK (Homo sapiens, UniProt P06239); test: Inhibition of a panel of kinases, in vitro HotSpot kinase assay: LCK; details: D-compounds panel data; 1 μM ATP; read-out: IC50 LCK
Sequence of LCK (P06239 whole entry): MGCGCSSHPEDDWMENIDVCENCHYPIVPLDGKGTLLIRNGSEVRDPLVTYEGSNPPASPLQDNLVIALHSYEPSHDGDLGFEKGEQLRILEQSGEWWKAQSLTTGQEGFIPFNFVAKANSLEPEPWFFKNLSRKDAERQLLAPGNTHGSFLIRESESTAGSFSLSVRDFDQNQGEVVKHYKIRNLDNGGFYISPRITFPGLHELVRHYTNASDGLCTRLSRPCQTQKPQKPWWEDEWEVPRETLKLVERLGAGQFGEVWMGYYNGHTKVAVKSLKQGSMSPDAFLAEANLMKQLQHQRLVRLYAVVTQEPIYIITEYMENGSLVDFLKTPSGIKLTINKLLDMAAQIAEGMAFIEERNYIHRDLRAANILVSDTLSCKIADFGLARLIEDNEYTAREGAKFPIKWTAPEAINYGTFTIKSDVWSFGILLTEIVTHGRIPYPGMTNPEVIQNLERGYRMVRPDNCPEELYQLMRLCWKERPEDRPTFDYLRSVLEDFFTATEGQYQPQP

[3] = biological target: T2, BTK-WT (Homo sapiens, UniProt Q06187); test: Btk in vitro inhibitory activity (one of Method A TR-FRET, Method B electrophoretic mobility shift, Method C radiometric filter binding); details: D-compounds panel data; read-out: IC50 BTK-WT
T2 construct: purified from insect cells as a full-length construct containing an N-terminal 6X-His tag; His6 (N); made in house; host or cells: insect cells (baculovirus Sf21 in Method B)
T2 sequence (Q06187 whole entry): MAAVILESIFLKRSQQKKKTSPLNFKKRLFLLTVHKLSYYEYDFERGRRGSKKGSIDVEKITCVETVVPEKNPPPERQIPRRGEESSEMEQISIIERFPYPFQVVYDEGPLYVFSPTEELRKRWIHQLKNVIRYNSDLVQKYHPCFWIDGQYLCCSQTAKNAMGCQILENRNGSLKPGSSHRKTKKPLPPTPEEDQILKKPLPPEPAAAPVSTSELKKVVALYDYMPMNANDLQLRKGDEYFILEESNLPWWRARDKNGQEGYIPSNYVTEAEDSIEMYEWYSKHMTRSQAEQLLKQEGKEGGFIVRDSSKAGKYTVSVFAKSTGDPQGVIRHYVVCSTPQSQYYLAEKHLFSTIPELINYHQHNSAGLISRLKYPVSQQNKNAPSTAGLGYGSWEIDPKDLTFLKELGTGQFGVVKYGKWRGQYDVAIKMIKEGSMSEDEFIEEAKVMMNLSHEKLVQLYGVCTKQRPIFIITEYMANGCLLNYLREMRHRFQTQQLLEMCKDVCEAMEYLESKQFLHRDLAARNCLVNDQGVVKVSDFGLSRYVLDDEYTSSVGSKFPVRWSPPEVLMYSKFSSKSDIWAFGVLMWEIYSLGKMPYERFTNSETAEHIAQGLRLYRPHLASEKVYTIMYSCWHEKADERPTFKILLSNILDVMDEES

[4] = biological target: SRC (Homo sapiens, UniProt P12931); test: Inhibition of a panel of kinases, in vitro HotSpot kinase assay: SRC; details: D-compounds panel data; 1 μM ATP
Sequence of SRC (P12931 whole entry): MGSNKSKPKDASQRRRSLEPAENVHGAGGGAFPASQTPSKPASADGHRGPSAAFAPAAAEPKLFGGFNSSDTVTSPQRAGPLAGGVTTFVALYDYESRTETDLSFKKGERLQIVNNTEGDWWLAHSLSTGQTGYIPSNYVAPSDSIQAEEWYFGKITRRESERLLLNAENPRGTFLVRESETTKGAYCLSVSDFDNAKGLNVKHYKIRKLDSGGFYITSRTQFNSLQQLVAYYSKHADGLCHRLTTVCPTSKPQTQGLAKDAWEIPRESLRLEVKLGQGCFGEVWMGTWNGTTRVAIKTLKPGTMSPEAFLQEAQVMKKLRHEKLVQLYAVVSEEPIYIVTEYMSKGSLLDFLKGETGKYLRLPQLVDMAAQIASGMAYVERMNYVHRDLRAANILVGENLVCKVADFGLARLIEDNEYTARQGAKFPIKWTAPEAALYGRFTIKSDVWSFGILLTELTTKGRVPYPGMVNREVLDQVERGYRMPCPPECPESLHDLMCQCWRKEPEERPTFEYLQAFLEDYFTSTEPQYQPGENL
Protocol: The degree of inhibition of a panel of kinases is determined using the in vitro HotSpot kinase assay (purified enzymes, ^33P-ATP, an appropriate substrate and 1 μM ATP).

| Compound | IC50 [1] [nM] | IC50 [2] [nM] | IC50 [3] [nM] | IC50 [4] [nM] |
| --- | --- | --- | --- | --- |
| CCn1cc(Nc2nc(N3CCC[C@@H](NC(=O)c4ccc(C5CC5)cc4)[C@H]3C)cnc2C(N)=O)cn1 [Example D-273, 5-[(2R,3R)-3-(4-cyclopropylbenzamido)-2-methylpiperidin-1-yl]-3-[(1-ethyl-1H-pyrazol-4-yl)amino]pyrazine-2-carboxamide] | 1000 to 10000 | 100 to 1000 | ≤ 10 | 100 to 1000 |
| C[C@@H]1[C@H](NC(=O)c2ccc(C3CC3)cc2)CCCN1c1cnc(C(N)=O)c(Nc2cnn(C3CCOCC3)c2)n1 [Example D-274, 5-[(2R,3R)-3-(4-cyclopropylbenzamido)-2-methylpiperidin-1-yl]-3-{[1-(oxan-4-yl)-1H-pyrazol-4-yl]amino}pyrazine-2-carboxamide] | 1000 to 10000 | 100 to 1000 | ≤ 10 | 10 to 100 |
| C[C@@H]1[C@H](NC(=O)c2ccc(C3CC3)cc2)CCCN1c1cnc(C(N)=O)c(Nc2cnn(C(F)F)c2)n1 [Example D-275, 5-[(2R,3R)-3-(4-cyclopropylbenzamido)-2-methylpiperidin-1-yl]-3-{[1-(difluoromethyl)-1H-pyrazol-4-yl]amino}pyrazine-2-carboxamide] | > 10000 | 1000 to 10000 | ≤ 10 | 100 to 1000 |
| C[C@@H]1[C@H](NC(=O)c2ccc(C3CC3)cc2)CCCN1c1cnc(C(N)=O)c(Nc2cnn(C)c2C(F)(F)F)n1 [Example D-276, 5-[(2R,3R)-3-(4-cyclopropylbenzamido)-2-methylpiperidin-1-yl]-3-{[1-methyl-5-(trifluoromethyl)-1H-pyrazol-4-yl]amino}pyrazine-2-carboxamide] | > 10000 | > 10000 | 1000 to 10000 | > 10000 |
| C[C@@H]1[C@H](NC(=O)c2ccc(C3CC3)cc2)CCCN1c1nnc(C(N)=O)c(Nc2cnn(C)c2)n1 [Example D-277, 3-[(2R,3R)-3-(4-cyclopropylbenzamido)-2-methylpiperidin-1-yl]-5-[(1-methyl-1H-pyrazol-4-yl)amino]-1,2,4-triazine-6-carboxamide] | 100 to 1000 | 10 to 100 | ≤ 10 | 10 to 100 |
| C[C@@H]1[C@H](NC(=O)c2ccc(C3CC3)cc2)CCCN1c1cnc(C(N)=O)c(Nc2cn(C)nc2C(F)(F)F)n1 [Example D-278, 5-[(2R,3R)-3-(4-cyclopropylbenzamido)-2-methylpiperidin-1-yl]-3-{[1-methyl-3-(trifluoromethyl)-1H-pyrazol-4-yl]amino}pyrazine-2-carboxamide] | > 10000 | > 10000 | > 10000 | > 10000 |
| C[C@@H]1[C@H](NC(=O)c2ccc(C3CC3)cc2)CCCN1c1cnc(C(N)=O)c(Nc2cnn(C3CC3)c2)n1 [Example D-279, 3-[(1-cyclopropyl-1H-pyrazol-4-yl)amino]-5-[(2R,3R)-3-(4-cyclopropylbenzamido)-2-methylpiperidin-1-yl]pyrazine-2-carboxamide] | > 10000 | 100 to 1000 | ≤ 10 | 100 to 1000 |
| C[C@@H]1[C@H](NC(=O)c2ccc(C3CC3)cc2)CCCN1c1cnc(C(N)=O)c(Nc2cnn(C3CCNCC3)c2)n1 [Example D-280, 5-[(2R,3R)-3-(4-cyclopropylbenzamido)-2-methylpiperidin-1-yl]-3-{[1-(piperidin-4-yl)-1H-pyrazol-4-yl]amino}pyrazine-2-carboxamide] | 1000 to 10000 | < 10 | ≤ 10 | ≤ 10 |
| C[C@@H]1[C@H](NC(=O)c2ccc(C3CC3)cc2)CCCN1c1cnc(C(N)=O)c(Nc2cnn(CCO)c2)n1 [Example D-281, 5-[(2R,3R)-3-(4-cyclopropylbenzamido)-2-methylpiperidin-1-yl]-3-{[I-(2-hydroxyethyl)-1H-pyrazol-4-yl]amino}pyrazine-2-carboxamide] | 1000 to 10000 | 100 to 1000 | ≤ 10 | 100 to 1000 |
| C[C@@H]1[C@H](NC(=O)c2ccc(C3CC3)cc2)CCCN1c1cnc(C(N)=O)c(Nc2cn[nH]c2)n1 [Example D-282, 5-[(2R,3R)-3-(4-cyclopropylbenzamido)-2-methylpiperidin-1-yl]-3-[(1H-pyrazol-4-yl)amino]pyrazine-2-carboxamide] | > 10000 | 100 to 1000 | ≤ 10 | 100 to 1000 |
| CC(=O)N1CCC(n2cc(Nc3nc(N4CCC[C@@H](NC(=O)c5ccc(C6CC6)cc5)[C@H]4C)cnc3C(N)=O)cn2)CC1 [Example D-283, 3-{[1-(1-acetylpiperidin-4-yl)-1H-pyrazol-4-yl]amino}-5-[(2R,3R)-3-(4-cyclopropylbenzamido)-2-methylpiperidin-1-yl]pyrazine-2-carboxamide] | 1000 to 10000 | 10 to 100 | ≤ 10 | 10 to 100 |
| C[C@@H]1[C@H](NC(=O)c2ccc(C3CC3)cc2)CCCN1c1cnc(C(N)=O)c(Nc2cnn(-c3ccncc3)c2)n1 [Example D-284, 5-[(2R,3R)-3-(4-cyclopropylbenzamido)-2-methylpiperidin-1-yl]-3-{[1-(pyridin-4-yl)-1H-pyrazol-4-yl]amino}pyrazine-2-carboxamide] | > 10000 | 10 to 100 | ≤ 10 | 10 to 100 |
| C[C@@H]1[C@H](NC(=O)c2ccc(C(C)(C)C)cc2)CCCN1c1nnc(C(N)=O)c(Nc2cnn(C)c2)n1 [Example D-285, 3-[(2R,3R)-3-(4-tert-butylbenzamido)-2-methylpiperidin-1-yl]-5-[(1-methyl-1H-pyrazol-4-yl)amino]-1,2,4-triazine-6-carboxamide] | 100 to 1000 | 10 to 100 | ≤ 10 | 10 to 100 |
| C[C@@H]1[C@H](NC(=O)N(C)C)CCCN1c1nnc(C(N)=O)c(Nc2cnn(C)c2)n1 [Example D-286, 3-[(2R,3R)-3-[(dimethylcarbamoyl)amino]-2-methylpiperidin-1-yl]-5-[(1-methyl-1H-pyrazol-4-yl)amino]-1,2,4-triazine-6-carboxamide] | 1000 to 10000 | 100 to 1000 | ≤ 10 | 10 to 100 |
| C[C@@H]1[C@H](NC(=O)c2ccc(C3CC3)cc2)CCCN1c1cnc(C(N)=O)c(Nc2cnn(CC#N)c2)n1 [Example D-287, 3-{[1-(cyanomethyl)-1H-pyrazol-4-yl]amino}-5-[(2R,3R)-3-(4-cyclopropylbenzamido)-2-methylpiperidin-1-yl]pyrazine-2-carboxamide] | 1000 to 10000 | 100 to 1000 | ≤ 10 | 100 to 1000 |
| C[C@@H]1[C@H](NC(=O)c2ccc(C3CC3)cc2)CCCN1c1cnc(C(N)=O)c(Nc2cnn(C3CCN(C(=O)C4CC4)CC3)c2)n1 [Example D-288, 3-{[1-(1-cyclopropanecarbonylpiperidin-4-yl)-1H-pyrazol-4-yl]amino}-5-[(2R,3R)-3-(4-cyclopropylbenzamido)-2-methylpiperidin-1-yl]pyrazine-2-carboxamide] | 1000 to 10000 | 100 to 1000 | ≤ 10 | 10 to 100 |
| C[C@@H]1[C@H](NC(=O)c2ccc(C3CC3)cc2)CCCN1c1cnc(C(N)=O)c(Nc2cnn(C3CCN(C(=O)C4(C)COC4)CC3)c2)n1 [Example D-289, 5-[(2R,3R)-3-(4-cyclopropylbenzamido)-2-methylpiperidin-1-yl]-3-({1-[1-(3-methyloxetane-3-carbonyl)piperidin-4-yl]-1H-pyrazol-4-yl}amino)pyrazine-2-carboxamide] | 1000 to 10000 | 10 to 100 | ≤ 10 | ≤ 10 |
| C[C@@H]1[C@H](NC(=O)c2ccc(C3CC3)cc2)CCCN1c1cnc(C(N)=O)c(Nc2cnn(C)c2F)n1 [Example D-290, 5-[(2R,3R)-3-(4-cyclopropylbenzamido)-2-methylpiperidin-1-yl]-3-[(5-fluoro-1-methyl-1H-pyrazol-4-yl)amino]pyrazine-2-carboxamide] | > 10000 | 1000 to 10000 | 10 to 100 | 1000 to 10000 |
